# Test results taken from patent US20110145975A1, “P0WDER-FREE GLOVE WITH STABLE AND FAST ACTING MICROBIAL COATING” (ANSELL LIMITED, priority 2009, published 2011).
# Type: physicochemical
# From the text: Several cationic antimicrobial agents are available for incorporation into the antimicrobial coating. The resistances of these cationic antimicrobial agents to degradation vary due to differences in their chemical structure, molecular weight, and species of anions and anionic surfactants that tend to degrade the long lifetime of the antimicrobial coating. […] Mixtures of antimicrobial agents can be used, for example to expand the range of bacteria against which the coating is effective.
substance,measurement,value
poly(hexamethylene biguanide) chloride,resistance to degradation,more resistant to degradation than CHG
